In patent publication US20250313528A1, “NOVEL COMPOUND AND PHARMACEUTICAL COMPOSITION FOR PREVENTING OR TREATING PULMONARY FIBROSIS COMPRISING SAME AS ACTIVE INGREDIENT” (GIL MEDICAL CENTER, priority 2022, published 2025):

Legend:
[1] = test system: bleomycin (BLM)-induced pulmonary fibrosis animal models; assay: Hydroxyproline quantification in lung tissue of BLM model; format: in vivo, C57BL/6N mice; details: BLM mice, compared to the BLM group
Method: Specifically, 7-week-old C57BL/6N mice were exposed to BLM (3-5 units/kg) via the airway. The compounds were administered orally at doses of 200 μg/kg and 500 μg/kg for Compound 1, and 100 μg/kg and 200 μg/kg for Compound 2, three times a week for three weeks starting the day after BLM exposure. Body weight gain was periodically measured during the experimental period, and lung weight was measured at the end of the experiment.
Specifically, homogenized lung tissue was placed in 1.5 mL tubes in similar amounts to prevent thawing, and 100 μL of 12 M hydrochloric acid was added for hydrolysis at 120° C. for 3 hours. After centrifugation at 10,000×g for 5 minutes, the supernatant was transferred to a new tube, and 10 μL of the sample was transferred to a 96-well plate and evaporated at 60° C. Subsequently, 100 μL of chloramine T reagent/oxidation buffer mixture was added to each well, followed by 100 μL of para-dimethylaminobenzaldehyde reagent, and reacted at 60° C. for 90 minutes. Absorbance was measured at 540 nm, and the content was determined using a standard calibration curve prepared in the same manner.

MRC-5 cells = assay: Wound healing assay, MRC-5; format: cell-based, human; details: MRC-5, TGF-β1 treatment, 24 hours, FIG. 6
Method: The effects of Compound 1 and Compound 2, selected in Example 3, on cell migration (wound healing) in MRC-5 and DHLF-IPF cells were examined.
Specifically, cells (1×10^5 cells/well) were seeded in a 60 mm dish to achieve approximately 90% confluency and cultured for 24 hours. Subsequently, a straight line was scratched on the bottom with a 200 μL pipette tip, and the detached cells were removed by washing once with Dulbecco's Phosphate-Buffered Saline (DPBS). The wound was photographed under a microscope, and treatments with TGF-β1 alone, TGF-β1+SFN, TGF-β1+GSF-016, and TGF-1+GSF-018 were applied and cultured for approximately 24 hours, after which the wound was re-photographed. The images taken at 24 hours of culture were analyzed using the Image J (Fiji package) software to measure the distance between cells, and the relative migration was expressed as a percentage (%) compared to the control group.

FN, COL1A1, and α-SMA = assay: qRT-PCR of fibrosis-related genes in TGF-β1-induced MRC-5 cells; format: cell-based, human; details: MRC-5, 10 μM pretreatment 1 hour, TGF-β1 1 ng/ml 48 hours, FIG. 4c/4d
Method: MRC-5 and DHLF-IPF cells were each cultured in growth medium, and the medium was removed. […] The medium was then removed, and the cells were washed once with PBS. Intracellular total RNA was extracted from the cultured cells using TRIzol reagent (TaKaRa Bio Inc., Japan) for gene expression analysis. 1 mL of TRIzol reagent was added to lyse the cells and denature the tissue. The lysate was transferred to each 1.5 mL tube, and 200 μL of chloroform was added thereto, followed by vortexing for 20 seconds to ensure complete mixing. After incubating at room temperature for 15 minutes, the mixture was centrifuged at 14,000 rpm for 20 minutes to obtain the supernatant. After adding an equal volume of isopropyl alcohol, the tubes were inverted and incubated at room temperature for 10 minutes. The sample was centrifuged at 14,000 rpm for 15 minutes to obtain an RNA pellet, which was washed by centrifugation with 70% ethanol for use on RNA at 14,000 rpm for 5 minutes, and dried for 5 minutes. The dried RNA sample was added with 20 μL of distilled water treated with 0.1% diethyl pyrocarbonate (DEPC) to dissolve the pallet and the resultant was used as a sample for cDNA synthesis. 1 μL of the same was used to measure the RNA concentration and purity at O.D. 260/280 nm using a Nanodrop.
Single-stranded cDNA synthesis was performed by mixing 1 μg of the extracted total RNA with 1 μL of oligo-d(T) primer ([…]) and 10 mM dNTP (TaKaRa Bio Inc., Japan), reacting at 65° C. for 5 minutes, followed by rapid cooling. To this template, 4 μL of 5×RT buffer, 0.5 μL of RNA inhibitor, and 100 units of RTase (TaKaRa Bio Inc., Japan) were added, and the total volume was adjusted to 20 μL using DEPC-treated distilled water. […]
Each gene expression level was measured using real-time PCR. […] The specificity of the amplified product was confirmed through melting curve analysis, and the target genes were quantified and compared using GAPDH as a control gene.

| Structure (SMILES) | hydroxyproline content in lung tissue ([1]; 200 μg/kg orally) | cell migration (wound healing) (MRC-5 cells) | gene expression levels of FN, COL1A1, and α-SMA (FN, COL1A1, and α-SMA) | hydroxyproline content in lung tissue ([1]; 100 μg/kg orally) |
| --- | --- | --- | --- | --- |
| CCOC(=O)C(CSC(=S)NCCCC[S+](C)[O-])NC(C)=O (stereo not shown) [Compound 1] | reduced | significantly inhibited in a dose-dependent manner | significantly reducing the expression levels compared to sulforaphane |  |
| C=CCOC(=O)C(CSC(=S)NCCCC[S+](C)[O-])NC(C)=O (stereo not shown) [Compound 2] | significant reductions | significantly inhibited in a dose-dependent manner | significantly reducing the expression levels compared to sulforaphane | significant reductions |
